Data reported in publication PMC7328663, “Agonist-specific desensitization of PGE2-stimulated cAMP signaling due to upregulated phosphodiesterase expression in human lung fibroblasts” (Naunyn-Schmiedeberg's archives of pharmacology, 2019).
Where “and” joins values, the source holds several entries; their conditions need not be identical. Identical values can stand only once.

Columns and labels:
HFL-1 cells [1] = experiment: cADDis assay for cAMP (fluorescent biosensor) in HFL-1 fibroblasts; type: cell-based, human; details: for leftward shift of PGE2 concentration-response curve (reversal of desensitization) by PDE inhibitor: 10 μM inhibitor, 10 min, Fig. 7a–c; for rightward shift of PGE2 responses induced by pretreatment: 24 h pretreatment with 100 nM of the agonist vs vehicle, Fig. 5b, n = 4; for desensitization of β-AR (isoproterenol) cAMP responses by pretreatment: 24 h pretreatment with 100 nM PGE2 or 100 nM isoproterenol, Fig. 1d; for EC50: Homo sapiens, HFL1; for PGE2 maximal response: normalized to 1 μM forskolin plus 200 μM IBMX, Fig. 4 experiments; for desensitization of PGE2 cAMP responses by pretreatment: 24 h pretreatment with 100 nM isoproterenol or 1 μM forskolin, Fig. 2a, Fig. 3
Protocol: HFL-1 fibroblasts (ATCC, Manassas, VA, USA) were grown in Ham’s F12K medium (Thermo Fisher Scientific, Waltham, MA, USA) with 10% fetal bovine serum (Atlanta Biologicals, Flowery Branch, GA, USA) and 1% antibiotic-antimycotic solution. Cells with a passage number of 13 to 25 were used and were grown to 70–90% confluency for all studies. Cells were grown in an incubator at 37 °C and 5% CO2 levels. Medium was aspirated and cells were washed once with PBS. After aspiration of PBS, 5 mL of 0.25% trypsin-EDTA (Thermo Fisher Scientific, Waltham, MA, USA) was added for 5 min to induce cell detachment. Media was added to the flask and gently mixed to suspend detached cells, transferred to tubes, centrifuged at 500g for 5 min, then washed to remove trypsin. The cell pellet was resuspended in growth medium, and approximately 9000 sells were plated per well on 96-well plates. Cells were pretreated with PGE2, other drugs, or vehicle prior to experiments by adding 10× concentration of drug to growth media. Medium was aspirated after 24 h, and each well was washed once with warm Dulbecco’s phosphate-buffered saline before performing cADDis assay for cAMP.
The cADDis assay was purchased from Montana Molecular (Bozeman, MT, USA). HFL-1 cells were incubated with a recombinant mammalianized baculovirus (BacMam) engineered to express a genetically modified protein that is a fusion of EPAC, a cAMP effector, with the green fluorescent protein (GFP). This protein serves as a convenient and quantitative cAMP sensor. In its unbound form, the protein fluoresces, but its fluorescence is quenched upon binding of cAMP. When seeding the cells in a 96-well plate, the following components were added: […] of cells plus media, 40 μL BacMam solution, and 2 μL of trichostatin A (an inhibitor of histone deacetylase) (Sigma®, St. Louis, MO, USA). In the 96-well plate format, approximately 8900 cells were seeded per well and 2.95 × 10^8 viral particles per well were added. Trichostatin A stock concentration was 100 μM, giving a final concentration of 1 μM in the final volume of 200 μL per well. Transduced HFL-1 cells were incubated for 24 h at 37 °C and 5% CO2 levels. After incubation, medium was aspirated and replaced with 180 μL per well of 1× Dulbecco’s phosphate-buffered saline without calcium and magnesium (Thermo Fisher Scientific, Waltham, MA, USA). The 96-well plate was then covered with aluminum foil and incubated at 37 °C for 30 min. The plate was placed in a SpectraMax M5 plate reader (Molecular Devices, San Jose, CA, USA), and fluorescence was read from the bottom of the plate with an excitation wavelength of 494 nm and an emission wavelength of 522 nm for 5 min. Once variability of fluorescence was ≤ 5% in all wells, different concentrations ofPGE2 or other agents were added with a multi-pipette and the changes in fluorescence were measured every 30 s for 30 min.
Data from kinetic studies of fluorescence were normalized to the original level of fluorescence (ΔF/F0) and then fit to a single-site decay model using GraphPad Prism 7.0 (GraphPad Software Inc., San Diego, CA, USA). The plateau of each decay curve was then used as the maximal response to that given concentration of drug (Emax), and concentration-response curves were generated using nonlinear regression analysis (log [agonist] vs. response, variable slope, four parameters) using GraphPad Prism 7.0. Concentration-response curves in multiple conditions were compared using two-way analysis of variance (2-way ANOVA) with Tukey’s multiple comparison test, and significance (p value) is reported for the effect of different conditions. Statistical comparison tests (t tests, 1-way and 2-way ANOVA) were performed using GraphPad Prism.

PDE = PDE activity assays in HFL-1 cell lysates ([3H]cAMP hydrolysis); type: biochemical, human; details: for PDE activity in lysates in presence of inhibitor: roflumilast 1 μM or IBMX 1 mM in the assay, vehicle-, PGE2- and isoproterenol-pretreated cells, Fig. 6d; for bulk PDE activity vs vehicle: cells treated 24 h with 30 μM forskolin, 100 nM PGE2 or 1 μM isoproterenol, Fig. 6c
HFL-1 cells [2] = experiment: Assay of basal cAMP (EIA of TCA extracts); type: cell-based, human; details: cells pretreated with 100 nM PGE2 for 24 h; not significant vs vehicle (p = 0.815)
Protocol: HFL-1 cells were washed three times with serum- and NaHCO3-free DMEM supplemented with 20 mM HEPES, pH 7.4 (DMEH), then incubated for 30 min at 37 °C. Medium was aspirated, and 250 μL of trichloroacetic acid (TCA, 7.5% w/v) was added to each well. cAMP content in TCA extracts was determined by EIA (Cayman Chemical) following the manufacturer’s instructions. The amount of cAMP was normalized to the amount of protein per sample as determined using a dye-binding protein assay (Bio-Rad).

PDE3A = experiment: qRT-PCR of PDE3A mRNA after 24 h pretreatment; type: cell-based, human; details: 24 h pretreatment: 1 μM forskolin, 100 nM isoproterenol or 100 nM PGE2; Fig. 6a
Protocol: (§1) After 48-h incubation with the lentivirus, medium was aspirated, cells were washed once in 1× PBS, and buffer RLT was added to disrupt cell membranes. Cells were collected and RNA was isolated using RNeasy columns with a QIAcube robot (Qiagen). RNA was quantified using the NanoDrop 2000/2000c (Thermo Fisher). Reverse transcription was performed on 400 ng of RNA samples. All steps followed the SuperScript® III First-Strand Synthesis System for RT-PCR protocol (Thermo Fisher). The steps included a denaturation step at 65 °C for 5 min in the RNA/primer mixture, containing 50 ng/μL of random hexamers. Complementary DNA (cDNA) synthesis mixture was added to the RNA/primer mixture and incubated for 10 min at 25 °C, followed by 50 min at 50 °C. The reaction was terminated at 85 °C for 5 min, then chilled on ice. Finally, 1 μL of RNase H was added to each tube followed by incubation for 20 min at 37 °C. cDNA samples were either used immediately for quantitative reverse transcription polymerase chain reaction (qRT-PCR) experiments or stored at − 20 °C.
(§2) TaqMan® Gene Expression Assays (Thermo Fisher) were used for qRT-PCR reactions. The ratio of components for each reaction was as follows: 1 μL 20× TaqMan® Gene Expression Assay, 10 μL 2× TaqMan® Gene Expression Mater Mix, 4 μL cDNA (1 ng to 100 ng), and 5 μL of RNase-free water. The thermal cycler settings were as follows: step 1, 50 °C for 2 min; step 2, 95 °C for 10 min; step 3, 95 °C for 15 s; and step 4, 60 °C for 1 min. Steps 3 and 4 were repeated for a total of 40 cycles. The housekeeping genes GAPDH, β-actin, and CDKN1A were used to normalize for differences in RNA samples. PCR data were analyzed using the 2^[−ΔΔCt] method, where Ct is the cycle threshold.

PDE3B = experiment: qRT-PCR of PDE3B mRNA after 24 h pretreatment; type: cell-based, human; details: 24 h pretreatment: 1 μM forskolin, 100 nM isoproterenol or 100 nM PGE2; Fig. 6a
Protocol: as §1, §2

PDE4B = experiment: qRT-PCR of PDE4B mRNA after 24 h pretreatment; type: cell-based, human; details: 24 h pretreatment: 1 μM forskolin, 100 nM isoproterenol or 100 nM PGE2; Fig. 6a
Protocol: as §1, §2

PDE4D = experiment: qRT-PCR of PDE4D mRNA after 24 h pretreatment; type: cell-based, human; details: 24 h pretreatment: 1 μM forskolin, 100 nM isoproterenol or 100 nM PGE2; Fig. 6a
Protocol: as §1, §2

EP2R = experiment: qRT-PCR of EP2R mRNA after 24 h pretreatment; type: cell-based, human; details: 24-h pretreatment with 100 nM PGE2; Fig. 6a
Protocol: TaqMan® Gene Expression Assays (Thermo Fisher) were used for qRT-PCR reactions. […] PCR data were analyzed using the 2^[−ΔΔCt] method, where Ct is the cycle threshold.

[3] = cells pretreated with 100 nM PGE2 for 24 h
[4] = acute cAMP increase, no pretreatment, Fig. 5a

CCOc1c2c(c(OCC)c3ccccc13)C(=O)N(c1ccc(CC(=O)NS(=O)(=O)c3ccccc3)cc1)C2 [GW-627368X]
shift of PGE2 concentration-response curve by antagonist (HFL-1 cells [1]; antagonist 100 nM, cells pretreated with 100 nM PGE2 for 24 h, Fig. 4): did not
rightward shift of PGE2 concentration-response curve by antagonist (HFL-1 cells [1]; antagonist 100 nM, vehicle-pretreated cells): did not cause a rightward shift

CC(C)Cn1c(=O)n(C)c(=O)c2[nH]cnc21 [IBMX, 3-isobutyl-1-methylxanthine]
leftward shift of PGE2 concentration-response curve (reversal of desensitization) by PDE inhibitor (HFL-1 cells [1]; [3]): small leftward shift that was not statistically significant
PDE activity in lysates in presence of inhibitor (PDE): significantly reduced PDE activity

C=CCC1([C@@H](O)C/C=C/[C@@H]2[C@@H](C/C=C\CCCC(=O)O)[C@H](Cl)C[C@H]2O)CCC1 [ONO-AE1–259]
rightward shift of PGE2 responses induced by pretreatment (HFL-1 cells [1]): 4.0 ± 1.2 fold and 4 fold
log EC50 (HFL-1 cells [1]; [4]): −8.29

CCCCC[C@H](O)/C=C/[C@H]1[C@H](O)CC(=O)[C@@H]1C/C=C\CCCC(=O)O [PGE2, prostaglandin E2]
desensitization of β-AR (isoproterenol) cAMP responses by pretreatment (HFL-1 cells [1]; Fig. 2b): does not cause desensitization
rightward shift of PGE2 responses induced by pretreatment (HFL-1 cells [1]): 8.0 ± 2.2 fold
EC50 (HFL-1 cells [1]; acute PGE2 cAMP response, 24 h vehicle pretreatment, Table 1/Fig. 1c, mean ± SEM n = 3–10): 39.8 nM
EC50 (HFL-1 cells [1]; [4]): 3.31 nM
PGE2 maximal response (HFL-1 cells [1]; PGE2-pretreated cells (100 nM, 24 h)): 0.60 ± 0.09
Emax (HFL-1 cells [1]; PGE2 response after 24 h pretreatment with 1, 10 or 100 nM PGE2 vs vehicle): None of the pretreatment conditions produced a significant reduction
PGE2 maximal response (HFL-1 cells [1]; vehicle-pretreated cells): 1.06 ± 0.10
basal cAMP level (HFL-1 cells [2]): 57.9 ± 13.8 fmol/mg protein
PDE3A mRNA expression, fold change over vehicle (PDE3A): 7.3 fold
PDE3B mRNA expression (PDE3B): Significant upregulation
PDE4B mRNA expression, fold change over vehicle (PDE4B): 2.6 fold
PDE4D mRNA expression, fold change over vehicle (PDE4D): 22.3 fold
EP2R mRNA levels (EP2R): did not observe any change
bulk PDE activity vs vehicle (PDE): significantly increased PDE activity
bulk PDE activity vs vehicle, time course (PDE; cells treated with 100 nM PGE2 from 5 min to 24 h, after 6 h or more): significant increases

O=C1CCc2cc(OCCCCc3nnnn3C3CCCCC3)ccc2N1 [cilostazol]
leftward shift of PGE2 concentration-response curve (reversal of desensitization) by PDE inhibitor (HFL-1 cells [1]; [3]): had no effect

C=C[C@@]1(C)CC(=O)[C@]2(O)[C@@]3(C)[C@@H](O)CCC(C)(C)[C@@H]3[C@H](O)[C@H](OC(C)=O)[C@@]2(C)O1 [forskolin]
desensitization of PGE2 cAMP responses by pretreatment (HFL-1 cells [1]): did not cause desensitization of PGE2 responses
PDE3A mRNA expression, fold change over vehicle (PDE3A): no effect
PDE3B mRNA expression (PDE3B): Significant upregulation
PDE4B mRNA expression, fold change over vehicle (PDE4B): 3.9 fold
PDE4D mRNA expression, fold change over vehicle (PDE4D): 7.9 fold
bulk PDE activity vs vehicle (PDE): significantly increased PDE activity

CC(C)NCC(O)c1ccc(O)c(O)c1 (stereo not drawn) [isoproterenol]
desensitization of β-AR (isoproterenol) cAMP responses by pretreatment (HFL-1 cells [1]; Fig. 2b): induces desensitization of β-AR responses
desensitization of PGE2 cAMP responses by pretreatment (HFL-1 cells [1]): does not decrease responses to PGE2
EC50 (HFL-1 cells [1]; acute isoproterenol cAMP response, 24 h pretreatment with 100 nM isoproterenol, Fig. 2b): 2.24 nM
PDE3A mRNA expression, fold change over vehicle (PDE3A): no effect
PDE3B mRNA expression (PDE3B): Significant upregulation
PDE4B mRNA expression, fold change over vehicle (PDE4B): 1.3 fold
PDE4D mRNA expression, fold change over vehicle (PDE4D): 5.0 fold
bulk PDE activity vs vehicle (PDE): does not

O=C(Nc1c(Cl)cncc1Cl)c1ccc(OC(F)F)c(OCC2CC2)c1 [roflumilast]
PDE activity in lysates in presence of inhibitor (PDE): significantly reduced PDE activity

COc1ccc(C2CNC(=O)C2)cc1OC1CCCC1 (stereo not drawn) [rolipram]
leftward shift of PGE2 concentration-response curve (reversal of desensitization) by PDE inhibitor (HFL-1 cells [1]; [3]): 2.8 fold
effect on isoproterenol cAMP responses (HFL-1 cells [1]; 10 μM rolipram, cells pretreated with 100 nM PGE2 for 24 h, Fig. 7d): had no effect
